We go through two compounds from ChEMBL document CHEMBL1127552, “Approaches toward selective inhibition of nitric oxide synthase” (J Med Chem, 1994).

The target in assay [1] is T1, Nitric oxide synthase, inducible (Mus musculus, UniProt P29477).
T1 sequence (P29477 whole entry): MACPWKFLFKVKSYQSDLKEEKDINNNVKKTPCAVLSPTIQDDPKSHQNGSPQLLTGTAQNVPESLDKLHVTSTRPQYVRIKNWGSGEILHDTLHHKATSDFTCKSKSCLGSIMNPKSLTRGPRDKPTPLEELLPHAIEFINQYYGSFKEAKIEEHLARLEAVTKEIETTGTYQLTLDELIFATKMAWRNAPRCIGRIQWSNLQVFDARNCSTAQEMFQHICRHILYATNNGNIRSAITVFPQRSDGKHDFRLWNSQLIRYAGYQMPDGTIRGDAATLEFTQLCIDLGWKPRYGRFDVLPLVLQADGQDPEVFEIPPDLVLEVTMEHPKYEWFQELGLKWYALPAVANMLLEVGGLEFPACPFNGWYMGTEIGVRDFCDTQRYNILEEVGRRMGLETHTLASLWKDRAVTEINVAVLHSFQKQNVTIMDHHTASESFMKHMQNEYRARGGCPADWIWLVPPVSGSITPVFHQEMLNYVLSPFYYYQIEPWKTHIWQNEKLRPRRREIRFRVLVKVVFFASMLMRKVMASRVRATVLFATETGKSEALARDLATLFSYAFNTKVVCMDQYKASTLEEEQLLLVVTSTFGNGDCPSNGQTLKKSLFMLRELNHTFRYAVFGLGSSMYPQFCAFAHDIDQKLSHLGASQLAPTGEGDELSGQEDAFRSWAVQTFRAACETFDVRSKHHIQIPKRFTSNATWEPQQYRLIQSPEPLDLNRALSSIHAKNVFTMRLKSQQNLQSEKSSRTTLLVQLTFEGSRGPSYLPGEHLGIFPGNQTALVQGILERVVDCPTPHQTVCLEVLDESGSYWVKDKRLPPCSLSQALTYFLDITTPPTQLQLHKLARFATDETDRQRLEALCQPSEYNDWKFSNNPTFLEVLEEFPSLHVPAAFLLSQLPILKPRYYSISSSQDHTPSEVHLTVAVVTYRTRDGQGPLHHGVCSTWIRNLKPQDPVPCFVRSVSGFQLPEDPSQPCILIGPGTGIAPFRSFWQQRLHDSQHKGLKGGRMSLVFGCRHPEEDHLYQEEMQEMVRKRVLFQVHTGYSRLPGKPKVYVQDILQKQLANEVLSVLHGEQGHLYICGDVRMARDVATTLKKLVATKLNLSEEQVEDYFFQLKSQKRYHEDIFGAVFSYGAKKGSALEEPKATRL
Kind of assay: Compound was tested for its inhibitory activity against macrophage NO2- synthesis.

The next assay concerns the target T2, Nitric oxide synthase 3 (Bos taurus, UniProt P29473).
T2 sequence (P29473 whole entry): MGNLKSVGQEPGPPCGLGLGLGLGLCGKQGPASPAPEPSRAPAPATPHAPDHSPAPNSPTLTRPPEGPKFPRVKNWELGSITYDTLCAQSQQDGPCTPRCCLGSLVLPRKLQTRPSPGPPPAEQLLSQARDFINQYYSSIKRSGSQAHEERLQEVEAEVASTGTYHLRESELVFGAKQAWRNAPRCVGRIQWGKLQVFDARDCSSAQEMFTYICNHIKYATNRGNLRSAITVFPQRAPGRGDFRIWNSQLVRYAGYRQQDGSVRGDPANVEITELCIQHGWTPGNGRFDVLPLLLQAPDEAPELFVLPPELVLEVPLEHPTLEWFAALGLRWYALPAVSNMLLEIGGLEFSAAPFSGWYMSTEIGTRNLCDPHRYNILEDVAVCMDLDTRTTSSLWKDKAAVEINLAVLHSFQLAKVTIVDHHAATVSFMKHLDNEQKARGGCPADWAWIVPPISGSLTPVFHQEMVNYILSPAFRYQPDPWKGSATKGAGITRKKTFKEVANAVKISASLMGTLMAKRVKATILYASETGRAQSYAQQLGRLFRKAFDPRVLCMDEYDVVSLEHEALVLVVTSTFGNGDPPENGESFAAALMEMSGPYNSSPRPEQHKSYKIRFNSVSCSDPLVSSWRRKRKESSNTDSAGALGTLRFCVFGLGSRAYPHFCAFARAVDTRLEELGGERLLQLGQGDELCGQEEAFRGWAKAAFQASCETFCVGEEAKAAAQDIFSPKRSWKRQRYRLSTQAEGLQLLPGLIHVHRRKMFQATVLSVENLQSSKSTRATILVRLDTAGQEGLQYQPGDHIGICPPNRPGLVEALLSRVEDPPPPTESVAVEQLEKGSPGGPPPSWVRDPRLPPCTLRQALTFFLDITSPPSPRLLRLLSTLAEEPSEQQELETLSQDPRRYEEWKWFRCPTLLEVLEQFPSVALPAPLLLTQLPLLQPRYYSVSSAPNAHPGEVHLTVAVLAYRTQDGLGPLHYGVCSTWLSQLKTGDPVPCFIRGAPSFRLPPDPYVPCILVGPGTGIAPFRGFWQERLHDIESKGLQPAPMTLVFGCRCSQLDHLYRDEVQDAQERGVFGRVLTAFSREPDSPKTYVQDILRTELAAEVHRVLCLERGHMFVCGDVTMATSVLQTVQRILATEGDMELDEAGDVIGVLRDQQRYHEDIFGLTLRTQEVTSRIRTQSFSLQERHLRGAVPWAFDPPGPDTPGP
Briefly: Compound was tested for its inhibitory activity against endothelial NO2- synthesis.

Broadly, the IC50 is the concentration at which inhibition is half-maximal. Low values mean greater potency in that assay, high ones weaker potency in that assay. Compound `CNC(N)NCCCC(N)C(=O)O` (configuration not stated) returned an IC50 in assay [1] of 60 µM. This lies in the double-digit micromolar range.

At Nitric oxide synthase 3, `COC(=O)[C@@H](N)CCCNC(=N)N[N+](=O)[O-]` [L-NAME] returned an IC50 of 100 µM.
